Laboratory results as given in article PMC10927086, “Effects of structurally distinct human HDAC6 and HDAC6/HDAC8 inhibitors against S. mansoni larval and adult worm stages” (PLOS Neglected Tropical Diseases, 2024).
Several values for one entry are separate records, joined by “and”; a condition that tells them apart may be missing. Equal values may be shown once. Read-outs that look alike come from different tables or passages of the source.

Legend:
HERG K+ channels = system: HERG K+ channels; set-up: method as in earlier work; conditions: QikProp, log value; recommended below -5; ref [25]; cited from earlier work
[1] = system: adult S. mansoni worm pairs; assay: Viability assay on adult worm pairs (phenotype scoring 0-3); type: cell-based, Schistosoma mansoni; conditions: for viability at 20 µM / viability at 50 µM: Schistosoma mansoni
Protocol: For studies on adult worm pairs, mice infected 7–8 weeks previously with double sex cercariae were euthanized with intraperitoneal injections of Tiletamine/Zolazepam ([…]) + Xylazine (100 mg/kg) and adult parasites were harvested by reversed perfusion of the hepatic portal system and mesenteric veins. Adult worms were cultured in DMEM containing phenol red and with 4500 mg/l glucose, 2 mM L-glutamine, 100 U/ml penicillin, 100 μg/ml streptomycin, 1x antibiotic-antimycotic reagent, and 10% heat inactivated FBS. Viability assays on adult worm pairs were based on a phenotyping scoring assessment as previously described. Briefly, five adult pairs were incubated with selected compounds in 3 ml of DMEM complete medium. For each compound, three experiments were performed, and compounds were given to parasites only once without medium addition and/or replacement. DMSO (vehicle)-treated worms were used as control samples. Viability was monitored under a Leica Model MZ12 stereomicroscope for 7 days and viability scores (0–3) were assigned. […] For each sample, the total score was determined by the ratio of the sum of worm scores for the total number of worms.
Fig 3 Schistosome viability assays. Panel A: Representative dose-response curves of the inhibitors on NTS. The y-axis indicates the percentage of viability normalized against DMSO (100%) and gambogic acid 10 μM (0%). […] Panel B: dose-response curve of the inhibitors on adult schistosome worm pairs. DMSO (vehicle) was used as negative control (100% viability), the indicated compounds were assayed at 5 (full triangle) 10 (inverted full triangle), 20 (full square) and 50 μM (full circle). Data are expressed as a % severity score (viability) relative to DMSO. Each point represents the average ± standard deviation of three independent experiments.
Parasites were treated initially at 20 μM and 50 μM; their impact on viability was monitored for 7 days upon treatment. […] Viability of each schistosome was scored from 3 (no effect) to 0 (severe effects) by assigning daily worm phenotype scores (plate attachment, movement, color, gut peristalsis, tegument damage) as previously described (Fig 3B).

MDCK cell = system: MDCK cell; set-up: method as in earlier work; conditions: QikProp; >500 great; ref [25]; cited from earlier work
[2] = MTT cytotoxicity assay on BJ fibroblasts; type: cell-based; conditions: human, BJ fibroblast cells, compounds 100-0.78 μM, GA 10-0.078 μM, 2 independent experiments
Protocol: The NCTC clone 929 (L-929) murine fibroblast isolated from subcutaneous connective tissue (ATCC-CCL-1) were cultured in Dulbecco’s Modified Eagle Medium (DMEM) supplemented with 10 mM Hepes (pH 6.98–7.30), 1 mM l-glutamine, 100 U/ml of penicillin/streptomycin (BioWhittaker, Lonza, EuroClone SpA), and heat-inactivated 10% FBS. All cells were cultured at 37°C in a 5% CO2 humidified incubator.
The MTT method was employed as previously described to determine the viability of fibroblast cell lines. Briefly, cells seeded into 96-well plates at a density of 20,000 cells/well after overnight incubation, were exposed to selected compounds at the indicated concentrations for 24–72 h. Next they were gently washed, incubated with MTT (bromuro di 3-(4,5-dimetiltiazol-2-il)-2,5-diphenyltetrazolium) for 4 h, and processed for color detection with DMSO. The resulting purple solution was spectrophotometrically measured at 570 nm using a Varioskan Lux instrument and Skanit software (Thermo Fisher Scientific).
The optical density values for both assays were expressed as a percentage of cell survival and normalized with the value of cells treated with vehicle (DMSO), and the data were analyzed using GraphPad Prism v9.5.1 software (San Diego, CA, USA).
The cytotoxicity of the hit compounds was assessed in two independent experiments on murine L929 and human BJ fibroblasts at 24 h by MTT assays. Vehicle (DMSO) and Gambogic acid (GA) were used as negative and positive control respectively. The compounds show a safe profile on both cell lines (S2 Table).
The IC50(μM) shown was calculated by dose-response curves of the compounds on murine L929 and human BJ fibroblast cells. […] The data are representative of 2 independent experiments. Gambogic acid (GA) and vehicle (DMSO) were used as positive and negative controls respectively. (DOCX)

[3] = system: histone proteins of S. mansoni adult worm pairs; assay: Western blot, histone acetylation (anti-acetylated lysine) in adult worm pairs; type: cell-based, Schistosoma mansoni; conditions: 48 h and 72 h, partially lethal and sub-lethal doses
Protocol: Ten adult pairs were treated with selected HDAC inhibitors for 48 h or 72 h at partially lethal and sublethal concentrations. Compound concentrations were selected based on the viability curve, Trichostatin A (TSA), a pan-HDAC inhibitor, and NF2503 a SmHDAC8 inhibitor chemically characterized by the presence of a hydroxamate-based MBG (metal binding group) coupled to a tricyclic thieno[3,2-b]indole core as capping group, previously described were used as positive controls in the experiments; DMSO (vehicle) was the negative control. Parasites were processed as previously described and samples were analyzed by 15% SDS-PAGE, and immunoblotting was performed using α-tubulin DM1A (1:5000), α-acetylated-lysine (1:4000) and α-acetylated tubulin (1:3000) antibodies. A Chemidoc XRS Bio-Rad with a chemiluminescent camera and Bio-Rad ImageLab 4.0 software were used for the acquisition and analysis of images. Each Western blot analysis was calibrated by Ponceau staining.
TSA, a known pan- class I and class II HDAC -inhibitor, and NF2503, a HDAC inhibitor previously shown to impact histone acetylation in adult worm pairs were used as positive controls.
Fig 6 Effects of selected compounds on histones and tubulin acetylation. […]

hHDAC1 = conditions: recombinant enzyme, previously reported; ref [25]; cited from earlier work
[4] = set-up: method as in earlier work; conditions: QikProp, ref [25], cited from earlier work; for %HOA predicted human oral absorption: 0 to 100% scale, >80% high; for QPlogS predicted aqueous solubility: log value, recommended -6.5-0.5; for SASA predicted total solvent accessible surface: recommended 300-1000, in Å2 (unit assumed); for QPlogP predicted octanol/water partition coefficient: recommended -2-6.5
[5] = 24 h, 20 µM, day 1, read-out: % viability of adult worm pairs relative to DMSO, Mean
[6] = 24 h, 20 µM, day 1, read-out: % viability of adult worm pairs relative to DMSO, single experiments
[7] = 24 h, 50 µM, day 1, read-out: % viability of adult worm pairs relative to DMSO, Mean
[8] = 72 h, 20 µM, day 3, read-out: % viability of adult worm pairs relative to DMSO, Mean
[9] = 72 h, 20 µM, day 3, read-out: % viability of adult worm pairs relative to DMSO, single experiments
[10] = 72 h, 50 µM, day 3, read-out: % viability of adult worm pairs relative to DMSO, Mean
[11] = 120 h, 20 µM, day 5, read-out: % viability of adult worm pairs relative to DMSO, Mean
[12] = 120 h, 20 µM, day 5, read-out: % viability of adult worm pairs relative to DMSO, single experiments
[13] = 120 h, 50 µM, day 5, read-out: % viability of adult worm pairs relative to DMSO, Mean
[14] = 168 h, 20 µM, day 7, read-out: % viability of adult worm pairs relative to DMSO, Mean
[15] = 168 h, 20 µM, day 7, read-out: % viability of adult worm pairs relative to DMSO, single experiments
[16] = 168 h, 50 µM, day 7, read-out: % viability of adult worm pairs relative to DMSO, Mean

Structure (SMILES) | QPlogHERG predicted IC50 values for blockage of HERG K+ channels (HERG K+ channels) | % viability of adult worm pairs relative to DMSO, single experiments ([1]; 20 µM, day 1, 20 µM) | % viability of adult worm pairs relative to DMSO, single experiments ([1]; 20 µM, day 3, 20 µM) | % viability of adult worm pairs relative to DMSO, single experiments ([1]; 20 µM, day 5, 20 µM) | % viability of adult worm pairs relative to DMSO, single experiments ([1]; 20 µM, day 7, 20 µM) | % viability of adult worm pairs relative to DMSO, single experiments ([1]; 50 µM, day 3, 50 µM) | viability at 20 µM [1, 5] | viability at 20 µM [1, 6] | viability at 50 µM [1, 7] | viability at 20 µM [1, 8] | viability at 20 µM [1, 9] | viability at 50 µM [1, 10] | viability at 20 µM [1, 11] | viability at 20 µM [1, 12] | viability at 50 µM [1, 13] | viability at 20 µM [1, 14] | viability at 20 µM [1, 15] | viability at 50 µM [1, 16] | QPPMDCK predicted apparent MDCK cell permeability (MDCK cell) | IC50 at 24 h [2] | also measured
Cn1c(=O)c(OCc2ccc(C(=O)NO)cc2)c(C2CCCCC2)c2ccccc21 [NF2836] | -5.45 | 100% | 100% and 96% | 100% and 96% | 100% | 80% and 60% and 92.59% and 77% | 94.3% | 83% | 62.1% | 98.7% | 100% | 77.4% | 98.7% | 100% | 53.9% | 94.3% | 100% | 53.2% | 11.753 ×10⁻⁶ cm/s | > 100000 nM | % viability of adult worm pairs relative to DMSO, single experiments ([1]; 50 µM, day 5, 50 µM): 63% and 43% and 42.59% and 67%; histone acetylation vs vehicle (DMSO) [3]: only slightly impacts histone acetylation; IC50 (hHDAC1): 3000 ± 200 nM; %HOA predicted human oral absorption [4]: 87.94%; QPlogS predicted aqueous solubility [4]: -5.04 mol/dm^3; SASA predicted total solvent accessible surface [4]: 684.14; QPlogP predicted octanol/water partition coefficient [4]: 3.01
CCN(CC)Cc1ccc(Cn2c(=O)c(OCc3ccc(C(=O)NO)cc3)c(-c3cccnc3)c3ccccc32)cc1 [NF2838] | -7.83 | 93.3% and 96% | 86.6% and 96% | 90% and 100% | 85% and 100% | 67% and 70% | 96.4% | 100% | 67.5% | 94.2% | 100% | 58.5% | 96.7% | 100% | 50% | 95% | 100% | 58.5% | 2.431 ×10⁻⁶ cm/s | > 100000 nM | % viability of adult worm pairs relative to DMSO, single experiments ([1]; 50 µM, day 1, 50 µM): 62% and 73%; % viability of adult worm pairs relative to DMSO, single experiments ([1]; 50 µM, day 7, 50 µM): 67%; viability at 50 µM ([1]; 72 h, 50 µM, day 3, read-out: % viability of adult worm pairs relative to DMSO, single experiments): 50%; viability at 50 µM ([1]; 168 h, 50 µM, day 7, read-out: % viability of adult worm pairs relative to DMSO, single experiments): 50%; histone acetylation vs vehicle (DMSO) [3]: more strongly impact histone acetylation; IC50 (hHDAC1): 300 ± 100 nM; %HOA predicted human oral absorption [4]: 64.57%; QPlogS predicted aqueous solubility [4]: -4.58 mol/dm^3; SASA predicted total solvent accessible surface [4]: 849.77; QPlogP predicted octanol/water partition coefficient [4]: 3.29
